Where two headings read alike, the source gives them in different places.
Columns and labels:
Assay type in all cases: cell-based
β1-adrenergic receptor = β1-adrenergic receptor (Homo sapiens (Human), UniProt P08588); test: cAMP Gs dynamic HTRF assay, β1 expressing CHO cells; settings: B1-AR
Experimental: (§1) cAMP homogeneous time-resolved fluorescence (HTRF). Compound efficacy was determined using the cAMP Gs dynamic HTRF assay (Cisbio, catalog #62AM4PEC) largely following the manufacturer's instructions, also detailed below.
(§2) Compound preparation. […] Standard serial dilution curves were 10-point, 5-fold dilutions starting from a highest concentration of 10 μM. […] Assay plates were centrifuged at 500×g for 10 seconds. Compounds and IBMX were prepared at 2× final dose to compensate for addition of cells.
(§3) Cell preparation. 1× stimulation buffer, washing PBS (Dulbecco's phosphate-buffered saline, −Mg −Ca; Caisson Labs, catalog #PBL01), assay PBS (Dulbecco's phosphate-buffered saline, +Mg, +Ca; Caisson Labs, catalog #PBL02) and Versene (0.02% EDTA disodium salt solution in PBS without calcium or magnesium; Caisson Labs, catalog #EDL01) were pre-warmed to 37° C. Cells expressing beta-adrenergic receptor were washed in washing PBS to remove growth medium and then released from the surface by incubating with Versene for 5-10 minutes at 37° C. Cells were harvested using assay PBS, counted manually by hemocytometer or by an automated cell counter, pelleted by centrifugation (200×g, 5 minutes) and resuspended in 37° C. 1× stimulation buffer to a final density of 1.5×10^6 cells/mL. 5 μL of the suspended cell solution (7500 cell total) were added to all wells of the 384 well assay plate, the assay plate was covered with an Axygen® plate seal (Corning PCR-SP) and incubated in a humidified 37° C. environment supplemented with 5% CO2 for 30 minutes.
(§4) HTRF reagent addition, reading and data analysis. After 30 minutes of cell stimulation with test compound, the assay plates were centrifuged at 500×g for 10 seconds, and incubation was stopped with the addition of 5 μL cAMP-D2 acceptor, diluted 1:21 in detection and lysis buffer 2 (Cisbio 62CL2FDF) was added to all cells. Subsequently, 5 μL Anti-cAMP-Eu Donor, diluted 1:21 in detection and lysis buffer 2, was added to cells. Plates were sealed and reactions gently ‘vortexed’ at 900 rpm on a Heidolph Titramax 1000 for at least 30 minutes at room temperature. Plates were centrifuged again at 500×g for 10 seconds, and HTRF was measured using a Tecan Spark plate reader at 50 flashes per well. […] Potency estimates (EC50) were derived from the four-parameter nonlinear regression of the concentration-effect curve and an estimate of relative efficacy was determined by comparing the magnitude of the test compound HTRF signal window (min−max dose) with the signal window of the full agonist control, isoproterenol.

β2 adrenergic receptor = β2 adrenergic receptor (Homo sapiens (Human), UniProt P07550); test: cAMP Gs dynamic HTRF assay, β2 expressing CHO cells; settings: B2-AR
Experimental: as §1, §2, §3, §4

[1] = biological target: β2 adrenergic receptors in human astrocytoma cells (1321N1) (Homo sapiens (Human), UniProt P07550); test: cAMP HTRF assay in human astrocytoma cells (1321N1); settings: Endogenous receptor; 1321N1 cells; read-out: Average pEC50 [Receptor subtype: Endogenous; Cell type: 1321N1] (converted)
Experimental: as §1, §2, §3, §4

[2] = CHO-K1 (HitHunter), read-out: Average pEC50 [Receptor subtype: B1-AR, Cell type: CHO-K1 (HitHunter)] (converted)
[3] = CHO-K cells, read-out: Average EC50 [Receptor subtype: B1-AR, Cell type: CHO-K]
[4] = CHO-K1 (HitHunter), read-out: Average pEC50 [Receptor subtype: B2-AR, Cell type: CHO-K1 (HitHunter)] (converted)
[5] = CHO-K cells, read-out: Average EC50 [Receptor subtype: B2-AR, Cell type: CHO-K]
[6] = Average pEC50 [Receptor subtype: B1-AR, Cell type: CHO-K1 (HitHunter)], CHO-K1 (HitHunter)
[7] = Average pEC50 [Receptor subtype: B2-AR, Cell type: CHO-K1 (HitHunter)], CHO-K1 (HitHunter)

Chain of β1-adrenergic receptor (P08588 whole entry, species assumed): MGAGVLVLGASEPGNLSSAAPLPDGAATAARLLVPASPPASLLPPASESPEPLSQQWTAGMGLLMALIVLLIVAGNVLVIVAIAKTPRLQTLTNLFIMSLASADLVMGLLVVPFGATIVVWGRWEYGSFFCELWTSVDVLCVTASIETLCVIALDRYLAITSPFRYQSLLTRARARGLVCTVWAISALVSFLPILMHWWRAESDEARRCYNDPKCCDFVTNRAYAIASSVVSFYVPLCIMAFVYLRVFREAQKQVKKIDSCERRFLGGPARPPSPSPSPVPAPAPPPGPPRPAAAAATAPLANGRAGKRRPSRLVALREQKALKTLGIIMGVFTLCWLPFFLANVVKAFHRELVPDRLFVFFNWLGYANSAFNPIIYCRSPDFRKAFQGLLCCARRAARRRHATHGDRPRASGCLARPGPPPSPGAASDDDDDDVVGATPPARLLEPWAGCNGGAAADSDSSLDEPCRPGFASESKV
Chain of β2 adrenergic receptor (P07550 whole entry, species assumed): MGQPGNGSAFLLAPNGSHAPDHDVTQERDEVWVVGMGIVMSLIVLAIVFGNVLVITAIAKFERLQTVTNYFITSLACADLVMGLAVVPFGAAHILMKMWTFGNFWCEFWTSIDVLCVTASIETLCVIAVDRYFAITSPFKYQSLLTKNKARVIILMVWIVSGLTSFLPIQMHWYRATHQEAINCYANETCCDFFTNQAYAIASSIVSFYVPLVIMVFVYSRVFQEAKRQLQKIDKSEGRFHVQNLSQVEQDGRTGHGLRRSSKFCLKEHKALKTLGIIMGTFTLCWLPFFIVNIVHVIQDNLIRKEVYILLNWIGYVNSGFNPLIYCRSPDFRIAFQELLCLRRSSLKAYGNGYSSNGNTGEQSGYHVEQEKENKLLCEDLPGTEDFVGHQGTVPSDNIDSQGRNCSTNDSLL
Chain of β2 adrenergic receptors in human astrocytoma cells (1321N1) (P07550 whole entry): as the sequence (P07550 whole entry, species assumed) above

SMILES	EC50 (β1-adrenergic receptor; [2])	EC50 (β2 adrenergic receptor; [4])	also measured
Cc1cccc([C@@H](O)CNC(C)(C)C)n1 [Compound 03-6]	10 to 100 nM	10 to 100 nM	EC50 (β1-adrenergic receptor; [3]): 10 to 100 nM; EC50 (β2 adrenergic receptor; [5]): 10 to 100 nM; EC50 [1]: 100 to 1000 nM
CC(C)c1cccc([C@H](O)CNC(C)(C)C)n1 [Compound 03-176]	> 1000 nM	100 to 1000 nM	EC50 (β1-adrenergic receptor; [3]): > 1000 nM; EC50 (β2 adrenergic receptor; [5]): 100 to 1000 nM
COc1ccc(CC(C)(C)NC[C@@H](O)c2cccc(C(F)(F)F)n2)cc1 [Compound 03-183]	> 1000 nM	100 to 1000 nM	EC50 (β1-adrenergic receptor; [3]): > 1000 nM; EC50 (β2 adrenergic receptor; [5]): 100 to 1000 nM
CC(C)(COc1ccccc1)NC[C@@H](O)c1cccc(C(F)(F)F)n1 [Compound 03-185]		> 1000 nM	Average pEC50 [Receptor subtype: B1-AR; Cell type: CHO-K1 (HitHunter)] (β1-adrenergic receptor; CHO-K1 (HitHunter)): D (D < 6); EC50 (β1-adrenergic receptor; [3]): > 1000 nM; EC50 (β2 adrenergic receptor; [5]): > 1000 nM
CC(C)(C)NC[C@@H](O)c1cccc(OC(F)(F)F)n1 [Compound 03-186]	> 1000 nM	100 to 1000 nM	EC50 (β1-adrenergic receptor; [3]): > 1000 nM; EC50 (β2 adrenergic receptor; [5]): 100 to 1000 nM
CC(C)(C)NC[C@H](O)c1cccc(OC(C)(C)C)n1 [Compound 03-196]	10 to 100 nM	< 10 nM	
CC(C)(C)NC[C@H](O)c1cccc(C2CCCC2)n1 [Compound 03-198]	> 1000 nM	10 to 100 nM	
CC(C)(C)NC[C@H](O)c1cccc(-c2cnn[nH]2)n1 [Compound 03-200]	10 to 100 nM	< 10 nM	
CC(C)(C)NC[C@H](O)c1cccc(C2(C#N)CC2)n1 [Compound 03-206]	< 10 nM	< 10 nM	
CC(C)(C)NC[C@H](O)c1cccc(C(C)(C)C#N)n1 [Compound 03-207]	< 10 nM	< 10 nM	
CC(C)(C)NC[C@@H](O)c1ccnc(C(F)(F)F)c1 [Compound 03-211]	100 to 1000 nM	100 to 1000 nM	
CC(C)(C)NC[C@H](O)c1ccc(C#N)cn1 [Compound 03-212]	> 1000 nM	100 to 1000 nM	
CC(C)(C)NC[C@H](O)c1cccc(-n2ccnc2)n1 [Compound 03-213]	> 1000 nM	10 to 100 nM	
CC(C)(C)NC[C@H](O)c1cccc(-n2cccn2)n1 [Compound 03-214]	100 to 1000 nM	< 10 nM	
Cn1ccc(-c2cccc([C@@H](O)CNC(C)(C)C)n2)n1 [Compound 03-216]	> 1000 nM	10 to 100 nM	
CC(C)(C)NC[C@@H](O)c1cccc(-c2ccncc2)n1 [Compound 03-220]	> 1000 nM	10 to 100 nM	
CC(C)(C)NC[C@H](O)c1cccc(-c2ccncc2)n1 [Compound 03-221]	10 to 100 nM	< 10 nM	
CC(C)(C)NC[C@@H](O)c1cccc(-n2cccn2)n1 [Compound 03-225]	100 to 1000 nM	100 to 1000 nM	
Cn1ccc(-c2cccc([C@H](O)CNC(C)(C)C)n2)n1 [Compound 03-226]	> 1000 nM	100 to 1000 nM	
CC(C)(C)NC[C@@H](O)c1cccc(NC2CCC2)n1 [Compound 03-229]	> 1000 nM	> 1000 nM	
CC(C)(C)NC[C@H](O)c1cccc(Cl)n1 [Compound 03-231]	> 1000 nM	10 to 100 nM	
CC(C)Nc1cccc([C@H](O)CNC(C)(C)C)n1 [Compound 03-232]	10 to 100 nM	10 to 100 nM	
CC(C)(C)NC[C@@H](O)c1cccc(C2=CCCC2)n1 [Compound 03-234]	10 to 100 nM	10 to 100 nM	
O[C@H](CNC1(C(F)(F)F)CC1)c1cccc(C(F)(F)F)n1 [Compound 03-235]	> 1000 nM	> 1000 nM	
CC(=O)Nc1cccc([C@H](O)CNC(C)(C)C)n1 [Compound 03-239]	100 to 1000 nM	10 to 100 nM	
CC(C)(C)NC[C@H](O)c1cccnc1-n1ccnn1 [Compound 03-241]	> 1000 nM	> 1000 nM	
CC(C)(C)NC[C@@H](O)c1cccc(-c2ccc[nH]2)n1 [Compound 03-244]	100 to 1000 nM	10 to 100 nM	

SMILES	EC50 (β1-adrenergic receptor; [2])	EC50 (β2 adrenergic receptor; [4])	also measured
CC(C)(C)NC[C@H](O)c1cccc(C2=N[C@H](C(=O)O)CS2)n1 [Compound 03-246]	> 1000 nM	> 1000 nM	
Cc1cnccc1[C@@H](O)CNC(C)(C)C [Compound 03-247, (R)-2-(tert-butylamino)-1-(3-methylpyridin-4-yl)ethan-1-ol]	> 1000 nM	> 1000 nM	
CC(C)(C)NC[C@@H](O)c1cccc(NC2CC2)n1 [Compound 03-250]	> 1000 nM	100 to 1000 nM	
CNCc1cccc([C@@H](O)CNC(C)(C)C)n1 [Compound 03-252]	> 1000 nM	> 1000 nM	
CNCc1cccc([C@@H](O)CN[C@H](C)Cc2ccc(OC)cc2)n1 [Compound 03-254]	> 1000 nM	100 to 1000 nM	
Cc1ncc(F)cc1[C@@H](O)CNC(C)(C)C [Compound 03-258]	100 to 1000 nM	10 to 100 nM	
COc1ccc([C@@H](O)CNC(C)(C)C)c(C)n1 [Compound 03-259]	10 to 100 nM	< 10 nM	
COc1ccc(C[C@@H](C)NC[C@H](O)c2cc(F)cnc2C)cc1 [Compound 03-260]			EC50 (β1-adrenergic receptor; [6]): > 1000 nM; EC50 (β2 adrenergic receptor; [7]): < 10 nM
Cc1ncc([C@@H](O)CNC(C)(C)C)c(C)n1 [Compound 03-261]	> 1000 nM	100 to 1000 nM	
CCNc1cccc([C@@H](O)CNC(C)(C)C)n1 [Compound 03-262]	10 to 100 nM	< 10 nM	
CC(C)(C)NC[C@H](O)c1cccc(NC2CC(F)(F)C2)n1 [Compound 03-263]	10 to 100 nM	< 10 nM	
CC(C)(C)NC[C@H](O)c1cccc(NC2(C)CC2)n1 [Compound 03-264]	10 to 100 nM	< 10 nM	
COc1ccc(C[C@@H](C)NC[C@H](O)c2cccc(C3CCCC3)n2)cc1 [Compound 03-265]	10 to 100 nM	< 10 nM	
CC(C)(C)NC[C@H](O)c1cccc(NCC(F)(F)F)n1 [Compound 03-266]	< 10 nM	< 10 nM	
Cc1nc(C2CC2)ccc1[C@@H](O)CNC(C)(C)C [Compound 03-268]	10 to 100 nM	< 10 nM	
COc1ccc(C[C@@H](C)NC[C@H](O)c2ccc(C3CC3)nc2C)cc1 [Compound 03-269]			Average pEC50 [Receptor subtype: B1-AR; Cell type: CHO-K1 (HitHunter)] (β1-adrenergic receptor; CHO-K1 (HitHunter)): B (B = 8-7); Average pEC50 [Receptor subtype: B2-AR; Cell type: CHO-K1 (HitHunter)] (β2 adrenergic receptor; CHO-K1 (HitHunter)): A (A > 8)
COc1ccc(C[C@@H](C)NC[C@H](O)c2cnc(C)nc2C)cc1 [Compound 03-270]			EC50 (β1-adrenergic receptor; [6]): > 1000 nM; EC50 (β2 adrenergic receptor; [7]): 10 to 100 nM
COc1ccc(C[C@@H](C)NC[C@H](O)c2cc(Cl)cnc2C)cc1 [Compound 03-271]	100 to 1000 nM	10 to 100 nM	
CC(C)(C)NC[C@@H](O)c1cccc(OC(C)(C)C)n1 [Compound 03-273]	> 1000 nM	100 to 1000 nM	
Cc1nc(NC2CC2)ccc1[C@@H](O)CNC(C)(C)C [Compound 03-274]	> 1000 nM	10 to 100 nM	
COc1ccc(C[C@@H](C)NC[C@H](O)c2ccc(NC3CC3)nc2C)cc1 [Compound 03-275]			EC50 (β1-adrenergic receptor; [6]): > 1000 nM; EC50 (β2 adrenergic receptor; [7]): 10 to 100 nM
CNc1ccc([C@@H](O)CNC(C)(C)C)c(C)n1 [Compound 03-276]	100 to 1000 nM	10 to 100 nM	
CNc1ccc([C@@H](O)CN[C@H](C)Cc2ccc(OC)cc2)c(C)n1 [Compound 03-277]			EC50 (β1-adrenergic receptor; [6]): > 1000 nM; EC50 (β2 adrenergic receptor; [7]): < 10 nM
[2H]C([2H])([2H])C(NCC(O)c1cccnc1C)(C([2H])([2H])[2H])C([2H])([2H])[2H] (stereo not drawn) [Compound 03-278]	100 to 1000 nM	< 10 nM	
[2H]C([2H])([2H])Nc1cccc([C@@H](O)CNC(C)(C)C)n1 [Compound 03-279]	> 1000 nM	100 to 1000 nM	
CC(C)(C)NC[C@H](O)c1cccc(C(C)(C)CN)n1 [Compound 03-280]	> 1000 nM	> 1000 nM	

From patent publication US10947196B2, “Beta adrenergic agonist and methods of using the same” (CURASEN THERAPEUTICS, INC., priority 2019, dated 2021)
